Experimental findings from ChEMBL document CHEMBL1201862, “PubChem BioAssay data set” (2004) are described below.

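Values below derive from 48-hour exposures of cells grown in 96-well plates, with endpoints linearly interpolated between the two concentrations bracketing the appropriate inhibition level. Here, GI50 denotes the concentration required for 50% inhibition of growth.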 Calls of active or inactive are those of the source. Rule as the data show it: active = GI50 up to about 1.1 µM and inactive = higher.

Test systems include A549; COLO 205; DU-145; HCC 2998; IGROV-1; NCI-H460; NCI-H522; NCI/ADR-RES; OVCAR-4; OVCAR-5; RXF 393; SF-295; SF-539; SK-MEL-2; SK-OV-3; SN12C; SR; TK-10; U-251; UACC-257.
Common to all, as to assay: NCI tumour cell line growth inhibition, 48 h

In the case of `CCOC(=O)C(NC(=O)CC(C)C)(NC(C)C)C(F)(F)F` (stereo unspecified), the GI50 with A549, with COLO 205, in the test with DU-145, with HCC 2998, with IGROV-1 and in the test with NCI-H460 was > 100 µM (inactive) in each case. Moreover, the GI50 with NCI-H522, in the test on NCI/ADR-RES, in the test on OVCAR-4, in the test on OVCAR-5, in the test on RXF 393 and with SF-295 was > 100 µM (inactive) throughout. The GI50 with SF-539, in the test with SK-MEL-2, in the test with SK-OV-3, in the test on SN12C, in the test with SR and in the test on TK-10 was > 100 µM (inactive) throughout. Moreover, the GI50 in the test on U-251 and in the test with UACC-257 was > 100 µM (inactive) throughout.

`O=C1c2cccc(O)c2C(=O)c2c(OC3OC(CO)C(O)C(O)C3O)cccc21` (stereo unspecified): the GI50 in the test on A549 is 27.3 µM (inactive); in the test on COLO 205 it was 19.4 µM (inactive); with DU-145, 32.2 µM (inactive); in the test on HCC 2998, 24.8 µM (inactive); with IGROV-1, 39.2 µM (inactive); with NCI-H460 it was 17.9 µM (inactive). Moreover, the GI50 is 15.8 µM (inactive) with NCI-H522; 17 µM (inactive) with NCI/ADR-RES; 16.1 µM (inactive) with OVCAR-4; 51.6 µM (inactive) with OVCAR-5; 26 µM (inactive) in the test on RXF 393; 48.5 µM (inactive) in the test on SF-295. Also, the GI50 in the test on SF-539 was 25.5 µM (inactive); with SK-MEL-2, 46.8 µM (inactive); with SK-OV-3, 48.2 µM (inactive); with SN12C, 24.7 µM (inactive); in the test on SR, 32.4 µM (inactive); with TK-10, 40.4 µM (inactive). The GI50 in the test with U-251 was 25.2 µM (inactive); in the test on UACC-257, 19.5 µM (inactive).

On to `Nc1nc(Cl)cc(NCC2(CO)CC(CCCc3ccccc3)C2)n1` (stereo unspecified), for which the GI50 is 14.7 µM (inactive) in the test on A549; > 100 µM (inactive) in the test with COLO 205; > 100 µM (inactive) in the test with DU-145; > 100 µM (inactive) with HCC 2998; > 72.8 µM (inactive) in the test with IGROV-1; > 69.5 µM (inactive) in the test with NCI-H460. Further, the GI50 with NCI-H522 was > 68.7 µM (inactive); in the test on NCI/ADR-RES, 4.86 µM (inactive); in the test on OVCAR-4, > 100 µM (inactive); in the test with OVCAR-5, > 100 µM (inactive); with RXF 393 it was > 47.1 µM (inactive); with SF-295, > 33.2 µM (inactive). Besides, the GI50 in the test with SF-539 was > 100 µM (inactive); in the test on SK-MEL-2, > 100 µM (inactive); in the test with SK-OV-3, 41.4 µM (inactive); with SN12C, > 36.6 µM (inactive); in the test on SR, 1 µM (active); in the test on TK-10, > 77.4 µM (inactive). Also, the figures for the GI50 in the test on U-251 and with UACC-257 were > 85.3 µM (inactive) and 0.242 µM (active), respectively.

Regarding `Cc1ccc(NC(=O)c2cc(S(=O)(=O)Nc3n[nH]c(=O)n3-c3ccccc3)c(S)cc2Cl)cc1`, the GI50 in the test on A549, in the test on COLO 205, in the test with DU-145, in the test on HCC 2998, in the test with IGROV-1 and in the test with NCI-H460 was > 100 µM (inactive) in each case. Moreover, the GI50 in the test with NCI-H522, in the test with NCI/ADR-RES, in the test with OVCAR-4, with OVCAR-5, in the test with RXF 393 and in the test on SF-539 was > 100 µM (inactive) in each case. Moreover, the GI50 in the test on SK-MEL-2, in the test with SK-OV-3, in the test with SN12C, with SR, in the test on TK-10 and in the test with U-251 was > 100 µM (inactive) each time. Moreover, the GI50 in the test on UACC-257 is > 100 µM (inactive).

Regarding `COc1cccc2c(=O)oc(-c3ccc(C(C)(C)C)cc3)nc12`, the GI50 in the test on A549 is 85.1 µM (inactive); in the test on COLO 205, 57 µM (inactive); in the test on DU-145, > 100 µM (inactive); with HCC 2998, 0.447 µM (active); in the test with IGROV-1, 45.1 µM (inactive); in the test on NCI-H460, 65.8 µM (inactive). Besides, the GI50 in the test on NCI-H522 was 30.1 µM (inactive); in the test on NCI/ADR-RES, 54.8 µM (inactive); in the test with OVCAR-4, 53.6 µM (inactive); with OVCAR-5, > 100 µM (inactive); with RXF 393 it was 49.3 µM (inactive); in the test with SF-295 it was 69.7 µM (inactive). Further, the GI50 in the test with SF-539 is > 100 µM (inactive); with SK-MEL-2, 44 µM (inactive); in the test on SK-OV-3, 80.9 µM (inactive); with SN12C, 96.8 µM (inactive); with SR, 26.1 µM (inactive); in the test on TK-10 it was > 100 µM (inactive). Besides, the GI50 in the test with U-251 was 42.2 µM (inactive); in the test on UACC-257, > 100 µM (inactive).

Take `c1ccc2c(c1)Sc1nccc3ccnc-2c13`: the GI50 is 48.3 µM (inactive) with COLO 205; > 100 µM (inactive) in the test with DU-145; 33.3 µM (inactive) in the test with HCC 2998; 27.7 µM (inactive) in the test on IGROV-1; 5.57 µM (inactive) in the test with NCI-H460; 21.9 µM (inactive) in the test with NCI-H522. Moreover, the GI50 in the test with NCI/ADR-RES was 25.2 µM (inactive); with OVCAR-4, 59.2 µM (inactive); in the test on OVCAR-5, > 100 µM (inactive); in the test with RXF 393, 63.8 µM (inactive); in the test with SF-295, 33.3 µM (inactive); with SF-539, 47.6 µM (inactive). Also, the GI50 in the test on SK-MEL-2 is > 100 µM (inactive); in the test on SK-OV-3, > 100 µM (inactive); with SN12C, 39 µM (inactive); in the test with SR, 11.9 µM (inactive); with TK-10 it was 12.4 µM (inactive); in the test with U-251, 23.9 µM (inactive). The GI50 in the test with UACC-257 was 73.6 µM (inactive).

Take `CCN(CC)CCOc1ccccc1/C=C/c1noc2ccccc12`: the GI50 is 6.21 µM (inactive) with COLO 205; 15.7 µM (inactive) in the test with DU-145; 5.79 µM (inactive) in the test with HCC 2998; 9.91 µM (inactive) in the test with IGROV-1; 11.6 µM (inactive) in the test on NCI-H460; 8.17 µM (inactive) in the test on NCI-H522. Also, the GI50 is 19 µM (inactive) with NCI/ADR-RES; 24.5 µM (inactive) in the test on OVCAR-4; 12.5 µM (inactive) with OVCAR-5; 2.75 µM (inactive) in the test with RXF 393; 16.2 µM (inactive) with SF-295; 16 µM (inactive) with SF-539. In addition, the GI50 is 0.736 µM (active) in the test with SK-MEL-2; 20 µM (inactive) with SK-OV-3; 11.5 µM (inactive) in the test with SN12C; 11.7 µM (inactive) with SR; 15 µM (inactive) in the test with TK-10; 3.95 µM (inactive) with UACC-257.

As for `O=C(OCCN1CCCCC1)C(c1ccccc1)C1(O)CCSCC1` (stereo unspecified), the GI50 with A549, in the test on COLO 205, in the test with DU-145, in the test with HCC 2998, in the test with IGROV-1 and in the test with NCI-H460 was > 100 µM (inactive) each time. The GI50 in the test on NCI-H522, in the test with NCI/ADR-RES, with OVCAR-4, with OVCAR-5, in the test on RXF 393 and in the test with SF-295 was > 100 µM (inactive) in each case. The GI50 in the test on SF-539, with SK-MEL-2, in the test with SK-OV-3, in the test on SN12C, in the test with SR and in the test on TK-10 was > 100 µM (inactive) each time. For the same compound, the GI50 with U-251 and with UACC-257 was > 100 µM (inactive) throughout.

As to `C=C(CC[C@@H](C)[C@H]1CC[C@H]2[C@@H]3C[C@@H](O)[C@H]4C[C@@H](O)CC[C@]4(CO)[C@H]3CC[C@]12C)C(C)C`, the GI50 with A549 is 4.23 µM (inactive); in the test with COLO 205, 7.71 µM (inactive); in the test with DU-145 it was 3.48 µM (inactive); with HCC 2998, 0.382 µM (active); with IGROV-1, 5.18 µM (inactive); in the test on NCI-H460, 2.18 µM (inactive). Moreover, the GI50 with NCI-H522 is 5.24 µM (inactive); with NCI/ADR-RES it was 4.49 µM (inactive); with OVCAR-4, 6.84 µM (inactive); in the test on OVCAR-5 it was 6.68 µM (inactive); with RXF 393, 3.32 µM (inactive); in the test on SF-295 it was 9.12 µM (inactive). The GI50 is 9.75 µM (inactive) with SF-539; 7.33 µM (inactive) with SK-MEL-2; 9.1 µM (inactive) in the test with SK-OV-3; 6.11 µM (inactive) in the test on SN12C; 2.71 µM (inactive) in the test with SR; 2.37 µM (inactive) with TK-10. Besides, the GI50 with U-251 is 6.44 µM (inactive); in the test with UACC-257, 7.46 µM (inactive).

As to `NC(Cc1ccccc1)C(=O)NC(Cc1ccccc1)NC(=O)C(Cc1c[nH]c2ccccc12)C(=O)O` (stereo unspecified), the GI50 in the test on A549, in the test on COLO 205, in the test with DU-145, with HCC 2998, with IGROV-1 and in the test with NCI-H460 was > 100 µM (inactive) throughout. Besides, the GI50 with NCI-H522, with NCI/ADR-RES, with OVCAR-4, in the test on OVCAR-5, in the test with RXF 393 and in the test with SF-295 was > 100 µM (inactive) in each case. Moreover, the GI50 is > 100 µM (inactive) with SF-539; 9.35 µM (inactive) in the test with SK-MEL-2; > 100 µM (inactive) in the test on SK-OV-3; > 100 µM (inactive) in the test with SN12C; > 100 µM (inactive) in the test with SR; > 100 µM (inactive) in the test with TK-10. Also, the GI50 in the test with U-251 and in the test on UACC-257 was > 100 µM (inactive) in each case.
